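1) Cells in 96-well plates. 2) Compound, 48 h, 5 concentrations. 3) Linear interpolation between surrounding doses. 4) Unreached endpoint = highest concentration. The concentration for 50% growth inhibition is given as GI50.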 The source made the active and inactive calls. Rule as the data show it: active = GI50 up to about 1.1 µM and inactive = higher.
Assays:
Experiment in all cases: NCI-60 cell line screen, 48 h
[1] = system: NCI-H226
[2] = system: SW-620
[3] = system: SF-295
[4] = system: UO-31
[5] = system: SK-MEL-28
[6] = system: NCI/ADR-RES
[7] = system: MCF7
[8] = system: HT-29
[9] = system: OVCAR-5
[10] = system: RXF 393
[11] = system: MDA-MB-231
[12] = system: UACC-62
[13] = system: T47D
[14] = system: DU-145
[15] = system: OVCAR-8
[16] = system: EKVX
[17] = system: 786-0
[18] = system: M14
[19] = system: SF-539
[20] = system: CAKI-1
[21] = system: Malme-3M
[22] = system: SK-MEL-2
[23] = system: HCT-116
[24] = system: K562
[25] = system: LOX IMVI
[26] = system: OVCAR-4
[27] = system: PC-3
[28] = system: MOLT-4
[29] = system: SN12C
[30] = system: HCC 2998
[31] = system: HCT-15
[32] = system: Hs-578T
[33] = system: BT-549
[34] = system: HOP-62
[35] = system: ACHN
[36] = system: SF-268
[37] = system: HOP-92
[38] = system: SR
[39] = system: TK-10
[40] = system: RPMI-8226
[41] = system: KM12
[42] = system: SK-MEL-5
[43] = system: NCI-H460
[44] = system: CCRF-CEM
[45] = system: SNB-19
[46] = system: SK-OV-3
[47] = system: IGROV-1
[48] = system: NCI-H23
[49] = system: MDA-N
[50] = system: UACC-257
[51] = system: SNB-75
[52] = system: COLO 205
[53] = system: U-251
[54] = system: HL-60
[55] = system: A549
[56] = system: OVCAR-3
[57] = system: MDA-MB-435
[58] = system: NCI-H522

Measured: GI50

NC(C(F)(F)F)(C(F)(F)F)P(=O)(c1ccccc1)c1ccccc1
inactive: [1] > 100 µM | [2] > 100 µM | [3] > 100 µM | [4] > 100 µM | [5] > 100 µM | [6] > 100 µM | [7] > 100 µM | [8] > 100 µM | [9] > 100 µM | [10] > 100 µM | [11] > 100 µM | [12] > 100 µM | [13] > 100 µM | [14] > 100 µM | [15] > 100 µM | [16] > 100 µM | [17] > 100 µM | [18] > 100 µM | [19] > 100 µM | [20] > 100 µM | [21] > 100 µM | [22] > 100 µM | [23] > 100 µM | [24] > 100 µM | [25] > 100 µM | [26] > 100 µM | [27] > 100 µM | [28] > 100 µM | [29] > 100 µM | [30] > 100 µM | [32] > 100 µM | [33] > 100 µM | [34] > 100 µM | [35] > 100 µM | [36] > 100 µM | [37] > 100 µM | [38] > 100 µM | [39] > 100 µM | [40] > 100 µM | [41] > 100 µM | [42] > 100 µM | [43] > 100 µM | [44] > 100 µM | [45] > 100 µM | [46] > 100 µM | [47] > 100 µM | [48] > 100 µM | [49] > 100 µM | [50] > 100 µM | [51] > 100 µM | [52] > 100 µM | [53] > 100 µM | [54] > 100 µM | [55] > 100 µM | [56] > 100 µM | [57] > 100 µM
> 100 µM: [31]

O=C(Nc1ccc(Cl)c(Cl)c1)OCCN1c2ccccc2Sc2ccccc21
inactive: [2] > 10 µM | [3] > 10 µM | [5] > 10 µM | [6] > 10 µM | [7] > 10 µM | [8] > 10 µM | [9] > 10 µM | [11] > 10 µM | [12] > 10 µM | [13] > 10 µM | [58] > 10 µM | [14] > 10 µM | [15] > 10 µM | [17] > 10 µM | [18] > 10 µM | [19] > 10 µM | [20] > 10 µM | [21] > 10 µM | [23] > 10 µM | [24] > 10 µM | [25] > 10 µM | [26] > 10 µM | [27] > 10 µM | [28] > 10 µM | [29] > 10 µM | [30] > 10 µM | [32] > 10 µM | [33] > 10 µM | [34] > 10 µM | [35] > 10 µM | [36] > 10 µM | [37] > 10 µM | [38] > 10 µM | [39] > 10 µM | [40] > 10 µM | [41] > 10 µM | [42] > 10 µM | [44] > 10 µM | [45] > 10 µM | [46] > 10 µM | [47] > 10 µM | [48] > 10 µM | [49] > 10 µM | [50] > 10 µM | [51] > 10 µM | [52] > 10 µM | [53] > 10 µM | [54] > 10 µM | [55] > 10 µM | [56] > 10 µM | [57] > 10 µM
> 10 µM: [31]

Reference: ChEMBL document CHEMBL1201862, “PubChem BioAssay data set” (2004)
